Results from patent US12077503B2, “Substituted cyclic amides and their use as herbicides” (FMC CORPORATION, priority 2015, dated 2024).

Columns and labels:
Type in all cases: in vivo
[1] = test system: ivy-leaved morning glory (Ipomoea hederacea); assay: Test G Post-Emergence Protocol; details: Ipomoea, post-emergence, 312 h; for pest or weed control at 15.625 g/ha: 15.625 g ai/ha, evaluated after 13 days (100=total damage to plant; 0=no damage to plant), read-out: Morningglory, Ivy-leaved damage rating; for pest or weed control at 62.5 g/ha: 62.5 g ai/ha, read-out: Morningglory, Ivy-leaved damage rating (100=total damage to plant; 0=no damage to plant); for pest or weed control at 62.5 g/ha / pest or weed control at 250 g/ha: evaluated after 13 days; for pest or weed control at 250 g/ha: 250 g ai/ha, read-out: damage to plant, Morningglory, Ivy-leaved (100=total damage to plant; 0=no damage to plant)
Outline: (§1)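 Foliar application was made 8 days after sowing, using an aqueous spray of the active in acetone/water (50:50) with 0.5% Tween 20, at doses of 15.625, 62.5 or 250 g/ha. Injury was assessed 13 days later, where 100 meant the plant was fully damaged.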

corn (Zea mays) [2] = assay: Test G Post-Emergence Protocol; details: Zea mays, post-emergence, 312 h; for plant injury at 15.625 g/ha: 15.625 g ai/ha, evaluated after 13 days (100=total damage to plant; 0=no damage to plant), read-out: Corn damage rating; for plant injury at 62.5 g/ha: 62.5 g ai/ha, read-out: Corn damage rating (100=total damage to plant; 0=no damage to plant); for plant injury at 62.5 g/ha / plant injury at 250 g/ha: evaluated after 13 days; for plant injury at 250 g/ha: 250 g ai/ha, read-out: damage to plant, Corn (100=total damage to plant; 0=no damage to plant)
Outline: as §1

[3] = test system: barnyardgrass (Echinochloa crus-galli); assay: Test G Post-Emergence Protocol; details: Echinochloa crus-galli, post-emergence, 312 h; for pest or weed control at 15.625 g/ha: 15.625 g ai/ha, evaluated after 13 days (100=total damage to plant; 0=no damage to plant), read-out: Barnyardgrass damage rating; for pest or weed control at 62.5 g/ha: 62.5 g ai/ha, read-out: Barnyardgrass damage rating (100=total damage to plant; 0=no damage to plant); for pest or weed control at 62.5 g/ha / pest or weed control at 250 g/ha: evaluated after 13 days; for pest or weed control at 250 g/ha: 250 g ai/ha, read-out: damage to plant, Barnyardgrass (100=total damage to plant; 0=no damage to plant)
Outline: as §1

[4] = test system: redroot pigweed (Amaranthus retroflexus); assay: Test G Post-Emergence Protocol; details: Amaranthus retroflexus, post-emergence, 312 h; for pest or weed control at 15.625 g/ha: 15.625 g ai/ha, evaluated after 13 days (100=total damage to plant; 0=no damage to plant), read-out: Pigweed, Redroot damage rating; for pest or weed control at 62.5 g/ha: 62.5 g ai/ha, read-out: Pigweed, Redroot damage rating (100=total damage to plant; 0=no damage to plant); for pest or weed control at 62.5 g/ha / pest or weed control at 250 g/ha: evaluated after 13 days; for pest or weed control at 250 g/ha: 250 g ai/ha, read-out: damage to plant, Pigweed, Redroot (100=total damage to plant; 0=no damage to plant)
Outline: as §1

[5] = test system: velvetleaf (Abutilon theophrasti); assay: Test G Post-Emergence Protocol; details: Abutilon theophrasti, post-emergence, 312 h; for pest or weed control at 15.625 g/ha: 15.625 g ai/ha, evaluated after 13 days (100=total damage to plant; 0=no damage to plant), read-out: Velvetleaf damage rating; for pest or weed control at 62.5 g/ha: 62.5 g ai/ha, read-out: Velvetleaf damage rating (100=total damage to plant; 0=no damage to plant); for pest or weed control at 62.5 g/ha / pest or weed control at 250 g/ha: evaluated after 13 days; for pest or weed control at 250 g/ha: 250 g ai/ha, read-out: damage to plant, Velvetleaf (100=total damage to plant; 0=no damage to plant)
Outline: as §1

[6] = test system: giant foxtail (Setaria faberi); assay: Test G Post-Emergence Protocol; details: Setaria faberi, post-emergence, 312 h; for pest or weed control at 15.625 g/ha: 15.625 g ai/ha, evaluated after 13 days (100=total damage to plant; 0=no damage to plant), read-out: Foxtail, Giant damage rating; for pest or weed control at 62.5 g/ha: 62.5 g ai/ha, read-out: Foxtail, Giant damage rating (100=total damage to plant; 0=no damage to plant); for pest or weed control at 62.5 g/ha / pest or weed control at 250 g/ha: evaluated after 13 days; for pest or weed control at 250 g/ha: 250 g ai/ha, read-out: damage to plant, Foxtail, Giant (100=total damage to plant; 0=no damage to plant)
Outline: as §1

[7] = test system: ivy-leaved morning glory (Ipomoea hederacea); assay: Test G Pre-Emergence Protocol; details: Ipomoea, pre-emergence, 312 h, evaluated after 13 days; for pest or weed control at 15.625 g/ha: 15.625 g ai/ha, read-out: Morning-glory, Ivy-leaved damage rating (100=total damage to plant; 0=no damage to plant); for pest or weed control at 62.5 g/ha: 62.5 g ai/ha, 100=total damage to plant, 0=no damage to plant, read-out: plant damage rating, Morningglory, Ivy-leaved; for pest or weed control at 250 g/ha: 250 g ai/ha, read-out: Morningglory, Ivy-leaved damage rating (100=total damage to plant; 0=no damage to plant)
Outline: (§2)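 Scores are visual damage ratings from 0 (no damage) to 100 (total plant kill), taken 13 days after treatment. Compound was sprayed one day post-sowing at 15.625, 62.5 or 250 g/ha in 50:50 acetone/water with 0.5% Tween 20.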

corn (Zea mays) [8] = assay: Test G Pre-Emergence Protocol; details: Zea mays, pre-emergence, 312 h, evaluated after 13 days; for plant injury at 15.625 g/ha: 15.625 g ai/ha; for plant injury at 15.625 g/ha / plant injury at 250 g/ha: read-out: Corn damage rating (100=total damage to plant; 0=no damage to plant); for plant injury at 62.5 g/ha: 62.5 g ai/ha, 100=total damage to plant, 0=no damage to plant, read-out: plant damage rating, Corn; for plant injury at 250 g/ha: 250 g ai/ha
Outline: as §2

[9] = test system: barnyardgrass (Echinochloa crus-galli); assay: Test G Pre-Emergence Protocol; details: Echinochloa crus-galli, pre-emergence, 312 h, evaluated after 13 days; for pest or weed control at 15.625 g/ha: 15.625 g ai/ha, read-out: Barnyard grass damage rating (100=total damage to plant; 0=no damage to plant); for pest or weed control at 62.5 g/ha: 62.5 g ai/ha, 100=total damage to plant, 0=no damage to plant, read-out: plant damage rating, Barnyardgrass; for pest or weed control at 250 g/ha: 250 g ai/ha, read-out: Barnyardgrass damage rating (100=total damage to plant; 0=no damage to plant)
Outline: as §2

[10] = test system: redroot pigweed (Amaranthus retroflexus); assay: Test G Pre-Emergence Protocol; details: Amaranthus retroflexus, pre-emergence, 312 h, evaluated after 13 days; for pest or weed control at 15.625 g/ha: 15.625 g ai/ha; for pest or weed control at 15.625 g/ha / pest or weed control at 250 g/ha: read-out: Pigweed, Redroot damage rating (100=total damage to plant; 0=no damage to plant); for pest or weed control at 62.5 g/ha: 62.5 g ai/ha, 100=total damage to plant, 0=no damage to plant, read-out: plant damage rating, Pigweed, Redroot; for pest or weed control at 250 g/ha: 250 g ai/ha
Outline: as §2

[11] = test system: velvetleaf (Abutilon theophrasti); assay: Test G Pre-Emergence Protocol; details: Abutilon theophrasti, pre-emergence, 312 h, evaluated after 13 days; for pest or weed control at 15.625 g/ha: 15.625 g ai/ha; for pest or weed control at 15.625 g/ha / pest or weed control at 250 g/ha: read-out: Velvetleaf damage rating (100=total damage to plant; 0=no damage to plant); for pest or weed control at 62.5 g/ha: 62.5 g ai/ha, 100=total damage to plant, 0=no damage to plant, read-out: plant damage rating, Velvetleaf; for pest or weed control at 250 g/ha: 250 g ai/ha
Outline: as §2

[12] = test system: giant foxtail (Setaria faberi); assay: Test G Pre-Emergence Protocol; details: Setaria faberi, pre-emergence, 312 h, evaluated after 13 days; for pest or weed control at 15.625 g/ha: 15.625 g ai/ha; for pest or weed control at 15.625 g/ha / pest or weed control at 250 g/ha: read-out: Foxtail, Giant damage rating (100=total damage to plant; 0=no damage to plant); for pest or weed control at 62.5 g/ha: 62.5 g ai/ha, 100=total damage to plant, 0=no damage to plant, read-out: plant damage rating, Foxtail, Giant; for pest or weed control at 250 g/ha: 250 g ai/ha
Outline: as §2

Structure (SMILES)	pest or weed control at 15.625 g/ha [1]	pest or weed control at 62.5 g/ha [1]	pest or weed control at 250 g/ha [1]	plant injury at 15.625 g/ha (corn (Zea mays) [2])	plant injury at 62.5 g/ha (corn (Zea mays) [2])	plant injury at 250 g/ha (corn (Zea mays) [2])	pest or weed control at 15.625 g/ha [3]	pest or weed control at 62.5 g/ha [3]	pest or weed control at 250 g/ha [3]	pest or weed control at 15.625 g/ha [4]	pest or weed control at 62.5 g/ha [4]	pest or weed control at 250 g/ha [4]	pest or weed control at 15.625 g/ha [5]	pest or weed control at 62.5 g/ha [5]	pest or weed control at 250 g/ha [5]	pest or weed control at 15.625 g/ha [6]	pest or weed control at 62.5 g/ha [6]	pest or weed control at 250 g/ha [6]	pest or weed control at 15.625 g/ha [7]	pest or weed control at 62.5 g/ha [7]	further results
Cc1cc(Cl)ccc1NC(=O)[C@H]1C(=O)N(C)C[C@@H]1c1ccc(C(F)(F)F)cc1 (racemic) [Compound 1442]	0%	0%	0%	0%	0%	0%	0%	0%	0%	0%	0%	0%	0%	0%	0%	0%	0%	0%	0%	0%	pest or weed control at 250 g/ha [7]: 0%; plant injury at 15.625 g/ha (corn (Zea mays) [8]): 0%; plant injury at 62.5 g/ha (corn (Zea mays) [8]): 0%; plant injury at 250 g/ha (corn (Zea mays) [8]): 0%; pest or weed control at 15.625 g/ha [9]: 0%; pest or weed control at 62.5 g/ha [9]: 0%; pest or weed control at 250 g/ha [9]: 0%; pest or weed control at 15.625 g/ha [10]: 0%; pest or weed control at 62.5 g/ha [10]: 0%; pest or weed control at 250 g/ha [10]: 10%; pest or weed control at 15.625 g/ha [11]: 0%; pest or weed control at 62.5 g/ha [11]: 0%; pest or weed control at 250 g/ha [11]: 10%; pest or weed control at 15.625 g/ha [12]: 0%; pest or weed control at 62.5 g/ha [12]: 0%; pest or weed control at 250 g/ha [12]: 30%
C=C(C)c1ccccc1NC(=O)[C@H]1C(=O)N(C)C[C@@H]1c1ccc(C(F)(F)F)cc1 (racemic) [Compound 1449]	0%	0%	10%	0%	0%	10%	0%	10%	30%	0%	0%	30%	0%	0%	0%	0%	20%	60%	0%	0%	pest or weed control at 250 g/ha [7]: 0%; plant injury at 15.625 g/ha (corn (Zea mays) [8]): 0%; plant injury at 62.5 g/ha (corn (Zea mays) [8]): 0%; plant injury at 250 g/ha (corn (Zea mays) [8]): 0%; pest or weed control at 15.625 g/ha [9]: 0%; pest or weed control at 62.5 g/ha [9]: 0%; pest or weed control at 250 g/ha [9]: 30%; pest or weed control at 15.625 g/ha [10]: 0%; pest or weed control at 62.5 g/ha [10]: 0%; pest or weed control at 250 g/ha [10]: 0%; pest or weed control at 15.625 g/ha [11]: 0%; pest or weed control at 62.5 g/ha [11]: 0%; pest or weed control at 250 g/ha [11]: 0%; pest or weed control at 15.625 g/ha [12]: 10%; pest or weed control at 62.5 g/ha [12]: 70%; pest or weed control at 250 g/ha [12]: 80%
